In BigSolDB 2.1:

c1ccc2ccccc2c1
Details	solubility (mole fraction)
in acetone, 297.17 K	0.211
in acetone, 298.11 K	0.218
in acetone, 300.23 K	0.233
in acetone, 301.55 K	0.246
in acetone, 303.47 K	0.259
in acetone, 305.14 K	0.272
in acetone, 306.63 K	0.285
in acetone, 307.76 K	0.297
in acetone, 309.37 K	0.31
in acetone, 311.03 K	0.323
in acetone, 312.03 K	0.335
in acetone, 312.97 K	0.347
in acetone, 314.37 K	0.361
in acetone, 315.74 K	0.376
in acetone, 317.26 K	0.394
in acetone, 319.06 K	0.415
in acetone, 320.87 K	0.44
in acetone, 322.7 K	0.459
in ethanol, 304.26 K	0.0464
in ethanol, 307.44 K	0.0531
in ethanol, 309.53 K	0.0566
in ethanol, 311.93 K	0.0614
in ethanol, 314.52 K	0.0658
in ethanol, 315.93 K	0.0703
in ethanol, 318.07 K	0.076
in ethanol, 319.8 K	0.0816
in ethanol, 321.46 K	0.0876
in ethanol, 323.45 K	0.103
in ethanol, 325.68 K	0.116
in ethanol, 327.32 K	0.129
in ethanol, 329.34 K	0.14
in ethanol, 330.43 K	0.154
in ethanol, 332 K	0.174
in ethanol, 333.9 K	0.204
in ethanol, 335.9 K	0.238
in ethanol, 337.76 K	0.293
in ethanol, 339.76 K	0.382
in n-butanol, 313.77 K	0.113
in n-butanol, 315.17 K	0.119
in n-butanol, 317.98 K	0.139
in n-butanol, 320.74 K	0.159
in n-butanol, 323.67 K	0.183
in n-butanol, 325.6 K	0.205
in n-butanol, 327.76 K	0.228
in n-butanol, 329.03 K	0.252
in n-butanol, 331.8 K	0.294
in n-butanol, 333.65 K	0.333
in n-butanol, 335.1 K	0.375
in n-butanol, 337 K	0.436
in n-butanol, 338.15 K	0.477
in n-butanol, 339.63 K	0.526
in n-butanol, 340.65 K	0.567
in n-butanol, 342.04 K	0.62
in n-butanol, 342.8 K	0.66
in n-heptane, 290.25 K	0.0595
in n-heptane, 294.3 K	0.0705
in n-heptane, 297.85 K	0.0798
in n-heptane, 301.37 K	0.0889
in n-heptane, 303.04 K	0.0978
in n-heptane, 305.3 K	0.107
in n-heptane, 307.53 K	0.115
in n-heptane, 309.63 K	0.123
in n-heptane, 311.2 K	0.133
in n-heptane, 312.6 K	0.141
in n-heptane, 314.13 K	0.15
in n-heptane, 315.15 K	0.158
in n-heptane, 316.63 K	0.168
in n-heptane, 317.65 K	0.177
in n-heptane, 321.33 K	0.209
in n-heptane, 324.25 K	0.23
in n-heptane, 326.98 K	0.265
in n-heptane, 329.45 K	0.304
in n-heptane, 330.26 K	0.329
in n-heptane, 331.5 K	0.35
in n-heptane, 333.75 K	0.389
in toluene, 291.35 K	0.239
in toluene, 301.45 K	0.31
in toluene, 304.54 K	0.34
in toluene, 308.53 K	0.374
in toluene, 311.93 K	0.406
in toluene, 315.25 K	0.439
in toluene, 318.55 K	0.472
in toluene, 322.23 K	0.503
in toluene, 324.37 K	0.537
in toluene, 327.55 K	0.589
in toluene, 331.35 K	0.637
in toluene, 334.65 K	0.677
